{"source": "patent EP4578444A1", "about": "“APPLICATION OF BETA-CARYOPHYLLENE FOR TARGETED EPIGENETIC REGULATION AND POTENTIAL PREVENTION OF WATER-OSMOTIC CONDITIONS OF THE MUCOUS MEMBRANES AND EPITHELIA” (SkyLab AG, priority 2023, dated 2025)", "key": {"[1]": {"system": "skin and mucous membrane keratinocytes", "experiment": "MTT cytotoxicity / cell viability of keratinocytes", "type": "cell-based", "conditions": "70% cell survival", "procedure": "(§1) Beta-caryophyllene was studied for cytotoxicity and assessed for viability of skin and mucous membrane keratinocytes to determine the maximum permissible concentration for external and local application.\n(§2) Cell viability was determined colorimetrically using MTT stain (Sigma Chemical, St. Louis, Mo.). The preparation was treated for the test in dimethylsulphoxide culture medium and added to a 96-well plate at serial dilutions ranging from 1.000 to 0.0032 mg/mL using a dilution factor of 3.16. Pre-culture was carried out for 48 hours before the test. Then MTT was added to the culture at a concentration of 0.75 mg/mL (100 µl/well) and incubated for another 4 hours. The contents of the well were removed, and 100 µl of isopropanol was added to solubilize the formed formazan crystals. Absorbance was determined in each well at 570 nm using a Multiskan GO monochromator (Thermo Scientific, Finland). Cell viability was expressed as a percentage and calculated by the equation: % Viable cells = (Absorbance of evaluated product incubated cells)/(Control absorbance) × 100 [formula]\n(§3) Three biological replicates were made. Statistical data processing was carried out to calculate the mean, standard deviation, and trend for each biological replicate. For the statistical evaluation ANOVA test was used allowing the measurement of variation of the results, comparing the data between all the groups. […]"}, "[2]": {"experiment": "MTT cytotoxicity / cell viability of keratinocytes", "type": "cell-based", "conditions": "keratinocytes, throughout the selected concentration range (0.01-0.3 wt.%), threshold value of 70%, read-out: viability of skin and epithelial keratinocytes", "procedure": "as §1, §2, §3"}}, "data": [{"smiles": "C=C1CC/C=C(\\C)CC[C@@H]2[C@@H]1CC2(C)C", "note": "[Beta-caryophyllene]", "values": [{"measurement": "EC70", "setting": "[1]", "result": 316.5, "unit": "µg/mL"}, {"measurement": "viability", "setting": "[2]", "result": "> 70", "unit": "%"}]}]}
